The source made the active and inactive calls. The calls are words filed in the database; no cut-off is given here.
Key:
Acetylcholinesterase [1] = target: T1, Acetylcholinesterase (Electrophorus electricus, UniProt O42275); assay: Mixed type inhibition of electric eel AChE using acetylthiocholine as substrate by Lineweaver-Burk plot analysis
SH-SY5Y [2] = assay: Neuroprotective activity in rotenone/oligomycin-induced cell death in human SH-SY5Y cells assessed as LDH release at 1 uM pretreated for 1 hr before rotenone/oligomycin challenge measured after 24 hrs by spectrophotometric method (reference value: 13 %); type: functional
SH-SY5Y [3] = assay: Neuroprotective activity in okadaic acid-induced cell death in human SH-SY5Y cells at 1 uM after 24 hrs by MTT method; type: functional, cell-based
Acetylcholinesterase [4] = target: T1, Acetylcholinesterase
Description: Inhibition of electric eel AChE preincubated for 10 mins measured after 15 mins by Ellman's method

Cholinesterase = Cholinesterase (Equus caballus, UniProt P81908)
Description: Inhibition of Equus caballus BChE preincubated for 10 mins measured after 15 mins by Ellman's method

SH-SY5Y [5] = assay: Neuroprotective activity in rotenone/oligomycin-induced cell death in human SH-SY5Y cells assessed as LDH release at 10 nM pretreated for 1 hr before rotenone/oligomycin challenge measured after 24 hrs by spectrophotometric method (reference value: 13 %); type: functional

T1 sequence (O42275 whole entry): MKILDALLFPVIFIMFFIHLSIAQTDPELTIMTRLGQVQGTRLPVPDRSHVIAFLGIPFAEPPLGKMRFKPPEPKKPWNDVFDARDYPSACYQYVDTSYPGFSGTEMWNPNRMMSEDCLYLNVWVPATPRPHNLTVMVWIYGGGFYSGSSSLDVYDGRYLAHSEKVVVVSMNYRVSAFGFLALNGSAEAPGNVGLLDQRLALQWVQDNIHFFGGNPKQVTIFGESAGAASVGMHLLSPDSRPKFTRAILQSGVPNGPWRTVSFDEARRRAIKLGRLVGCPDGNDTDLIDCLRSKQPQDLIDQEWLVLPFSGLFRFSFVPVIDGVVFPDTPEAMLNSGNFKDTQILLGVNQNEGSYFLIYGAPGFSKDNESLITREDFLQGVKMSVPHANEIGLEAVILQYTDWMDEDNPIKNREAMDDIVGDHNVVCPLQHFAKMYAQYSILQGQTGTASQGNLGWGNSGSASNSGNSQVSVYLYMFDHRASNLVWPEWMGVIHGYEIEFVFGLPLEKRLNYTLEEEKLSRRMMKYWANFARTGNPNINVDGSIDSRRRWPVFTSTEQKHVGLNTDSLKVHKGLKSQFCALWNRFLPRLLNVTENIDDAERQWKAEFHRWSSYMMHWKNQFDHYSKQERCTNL
Sequence of Cholinesterase (P81908 whole entry): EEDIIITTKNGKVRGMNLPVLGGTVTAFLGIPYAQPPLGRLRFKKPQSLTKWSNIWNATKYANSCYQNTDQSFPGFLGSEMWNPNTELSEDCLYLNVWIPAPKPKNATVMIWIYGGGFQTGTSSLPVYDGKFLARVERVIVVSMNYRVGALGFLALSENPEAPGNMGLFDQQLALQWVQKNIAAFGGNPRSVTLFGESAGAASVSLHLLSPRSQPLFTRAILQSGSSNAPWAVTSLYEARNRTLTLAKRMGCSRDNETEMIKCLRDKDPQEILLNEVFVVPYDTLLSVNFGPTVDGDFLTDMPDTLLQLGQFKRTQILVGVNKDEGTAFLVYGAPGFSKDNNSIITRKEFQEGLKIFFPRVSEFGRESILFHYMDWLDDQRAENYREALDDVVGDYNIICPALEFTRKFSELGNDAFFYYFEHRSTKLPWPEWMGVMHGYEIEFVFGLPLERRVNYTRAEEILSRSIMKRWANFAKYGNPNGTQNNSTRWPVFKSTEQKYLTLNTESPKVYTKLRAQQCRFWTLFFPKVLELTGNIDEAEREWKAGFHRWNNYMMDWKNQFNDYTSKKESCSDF

Row | SMILES | Ki (Acetylcholinesterase [1]) [µM] | Activity (SH-SY5Y [2]) [%] | Activity (SH-SY5Y [3]) | IC50 (Acetylcholinesterase [4]) [µM] | IC50 (Cholinesterase) [µM] | Activity (SH-SY5Y [5]) [%]
1 | CC(=O)Nc1nn(C)c2nc3nc4c(c(N)c3cc12)CCCC4 | 0.155 | 48 | inactive | 0.069 | 6.3 | –
2 | Cn1nc(C#N)c2c(N)c3c(nc21)CCCC3 | – | – | – | 1.7 | 6.3 | –
3 | Cn1nc2nc3c(c(N)c2c1C#N)CCCC3 | – | – | – | 0.57 | 100 | –
4 | CC(=O)Nc1nn(C)c2nc3nc4c(c(N)c3c(-c3ccccc3)c12)CCCC4 | – | – | – | 0.23 | 9 | –
5 | COc1ccc2[nH]cc(CCNC(C)=O)c2c1 [MELATONIN] | – | – | – | – | – | 48
6 | Cn1nc(C(N)=O)c2c(NCCCCCCOc3ccccc3)c3c(nc21)CCCC3 | – | – | – | 9.3 | > 100 | –
7 | Cn1nc2nc3c(c(N)c2c1C(N)=O)CCCC3 | – | – | – | 0.6 | 5.4 | –
